Patent US20070237712A1, “Methods of Redistributing Apical Target Antigens to Detect and Treat Cellular Proliferative Disease” (priority 2004, published 2007)
“Also recorded” adds a separate entry of the source.

Legend:
Type in all cases: cell-based
Na,K-ATPase = test: Cell surface biotinylation / immunoblot of basolateral marker Na,K-ATPase; details: MDCK-PSMA cells treated with nocodazole; FIG. 5B
Experimental: (§1) MDCK cells (clone II) were obtained from the ATCC (Manassas, Va.) and cultured in DMEM (Gibco BRL, Rockville, Md.) supplemented with 10% FBS, 2 mM L-glutamine, 25 units/ml penicillin, 25 μg/ml streptomycin, and 100 μM non-essential amino acids. Cells were grown at 37° C. in a humidified incubator with 5% CO2. Cells were treated for 10 hours with 10 mM sodium butyrate to enhance PSMA expression. For experiments involving inhibition of N-glycosylation or microtubule depolymerization, cells were treated for 3 hours with 5 μg/ml tunicamycin (Sigma, St. Louis, Mo.) or 4 μg/ml nocodazole (Sigma), or 2 μM vinblastine, vincristine, or vinorelbine (Sigma) in DMEM at 37° C. prior to the indicated experiment, unless otherwise noted.
(§2) MDCK cells were grown to confluence on transwell filters, as determined by TER, and biotinylation of the apical or basolateral surface was performed as described (25). […]
Samples were separated on 10% SDS polyacrylamide gels and transferred to nitrocellulose. […] After washing three times in PBST and once in PBS, bound antibody was detected by peroxidase-catalyzed ECL-Plus (Amersham, Buckinghamshire, UK). Densitometric analysis and quantification of bands was performed using ImageQuant software (Molecular Dynamics, Sunnyvale, Calif.).

MDCK-PSMA cells [1] = test: Post-Golgi analysis assay: co-localization of PSMA and Na,K-β-GFP vesicles after 20° C. block; details: data not shown
Experimental: MDCK-PSMA cells transiently transfected to express Na,K-β-GFP were grown on glass coverslips and treated with nocodazole or tunicamycin. Cells were incubated for 6 hours at 20° C. to accumulate newly synthesized protein in the Golgi and TGN, subsequently transferred to 37° C. for 30 minutes, and subject to immunofluorescence analysis as described above. Laser scanning confocal microscopy was performed using a Zeiss Axiovert 200 inverted microscope (Carl Zeiss, Inc, Thornwood, N.Y.). Samples were excited with Argon and Helium/Neon lasers and single channel images were generated and analyzed using the Zeiss LSM 510 Meta imaging system (Carl Zeiss, Inc.) by recording light emitted between 505 and 543 nm for GFP and above 560 nm for CY3.

PSMA [2] = test: Selective cell surface biotinylation assay of PSMA at apical or basolateral plasma membrane
Experimental: as §1, §2
Samples were separated on 10% SDS polyacrylamide gels and transferred to nitrocellulose. […] After washing three times in PBST and once in PBS, bound antibody was detected by peroxidase-catalyzed ECL-Plus (Amersham, Buckinghamshire, UK). Densitometric analysis and quantification of bands was performed using ImageQuant software (Molecular Dynamics, Sunnyvale, Calif.). […]

PSMA [3] = test: Antibody internalization trafficking assay (pulse-chase with mAb J591 in apical or basolateral chamber); details: MDCK-PSMA cells pulsed and chased in the presence of nocodazole (three hours); FIG. 5C
Experimental: as §1
Confluent monolayers of MDCK-PSMA cells on transwell filters were rinsed twice and incubated for 30 minutes in starving media [cystine/methionine free DMEM (CellGro, Herndon, Va.)] supplemented with 0.2% BSA. […]
For the antibody internalization trafficking assay, MDCK cells were metabolically labeled and chased in DMEM containing 5 μg/ml of mAb J591 added to either the apical or basolateral chamber. […] The relative amount of PSMA for each was calculated as a percentage of the total amount of labeled PSMA precipitated throughout the course of the experiment, as quantified by densitometry.

PSMA [4] = test: Surface immunofluorescence of PSMA; details: MDCK-PSMA cells treated with nocodazole; data not shown
Experimental: as §1
For cell surface staining, MDCK cells were grown on transwell filters and the transepithelial electrical resistance (TER) was determined using an EVOM Epithelial Voltohmeter (World Precision Instruments, Sarasota, Fla.). […]
Confocal microscopy was performed using a Fluoview laser scanning confocal microscope (Olympus America, Melville, N.Y.) as described (25). To detect FITC and propidium iodide, samples were excited with krypton and argon lasers and light emitted between 525 and 540 nm was recorded for FITC and above 630 nm for propidium iodide. Images were generated and analyzed using the Fluoview image analysis software, version 2.1.39 (Olympus America).

microtubule cytoskeleton = test: Immunofluorescence analysis of alpha-tubulin (microtubule integrity); details: MDCK-PSMA cells, 2 μM drug, 3 hours; FIG. 6B-D
Experimental: as §1
Tissue sections and MDCK cells were fixed in cold methanol at −20° C. for 30 minutes. Following fixation, specimens were placed in humidified chambers, washed with phosphate buffered saline containing 0.1 mM CaCl2 and 1 mM MgCl2 and 0.5% bovine serum albumin (PBS-CM-BSA), incubated 1 hour with primary antibody, washed with PBS-CM-BSA, incubated 30 minutes in secondary antibody, washed with PBS-CM-BSA, rinsed with distilled water, and mounted in Vectashield (Vector, Burlingame, Calif.).

MDCK-PSMA cells [5] = test: Domain specific internalization assay of J591; details: MDCK-PSMA monolayers, 2 μM drug 3 hours; for J591 uptake from the apical surface after drug treatment: then 5 μg/ml J591 30 minutes in apical chamber, FIG. 6F-H; for J591 internalization from the basolateral surface after drug treatment: then 5 μg/ml J591 30 minutes in basolateral chamber, FIG. 6J-L
Experimental: MDCK-PSMA cells were grown on […] pore size polycarbonate transwell filters (Corning, Corning, N.Y.) and grown to confluence as measured by transepithelial electrical resistance (TER) using an EVOM Epithelial Voltometer (World Precision Instruments, Sarasota, Fla.). Values were normalized for the area of the filter after subtracting the background resistance of a filter without cells. TER of 220-250Ω·cm^2 is indicative of the presence of functional tight junctions (24). Cells were treated with 2 μM of vinblastine, vincristine, or vinorelbine at 37° C. for 3 hours and subsequently incubated at 37° C. for 30 minutes in the presence of the indicated drug and 5 μg/ml of J591 added to either the apical or basolateral chamber. Cells were rinsed in PBS-CM, fixed, and subject to immunofluorescence analysis with FITC-conjugated secondary antibody. Single channel digital microscopic images were collected with an Olympus AX70 upright microscope using identical exposure parameters and analyzed with SPOT imaging software, version 4.0.4 (Diagnostic Instruments, Inc., Sterling Heights, Mich.).

Molecule | depolymerization of the microtubule cytoskeleton (microtubule cytoskeleton) | J591 uptake from the apical surface after drug treatment (MDCK-PSMA cells [5]) | J591 internalization from the basolateral surface after drug treatment (MDCK-PSMA cells [5]) | other results
COC(=O)Nc1nc2cc(C(=O)c3cccs3)ccc2[nH]1 [nocodazole, methyl[5-(2-thienyl-carbonyl)-1H-benzimidazol-2-yl]-carbamate] |  |  |  | polarity of the basolateral marker Na,K-ATPase (Na,K-ATPase): unaffected; co-localization of PSMA and Na,K-β-GFP in post-Golgi vesicles (MDCK-PSMA cells [1]; in the presence of nocodazole, after release from 20° C. block): did not show an increased co-localization; distribution of surface PSMA between apical and basolateral plasma membrane (PSMA [2]; MDCK-PSMA cells treated with nocodazole (4 μg/ml, 3 hours), FIG. 5A): homogeneous distribution; radiolabeled PSMA precipitated with J591 in apical versus basolateral chamber (polarized delivery of PSMA) (PSMA [3]): equivalent levels; also recorded: abolished; PSMA expression at the basolateral plasma membrane relative to untreated cells (PSMA [4]): increased PSMA expression at the basolateral plasma membrane
CC[C@]1(O)C[C@@H]2CN(CCc3c([nH]c4ccccc34)[C@@](C(=O)OC)(c3cc4c(cc3OC)N(C)[C@H]3[C@@](O)(C(=O)OC)[C@H](OC(C)=O)[C@]5(CC)C=CCN6CC[C@]43[C@@H]65)C2)C1 [vinblastine] | Extensive microtubule depolymerization | also taken up from the apical surface | dramatic increase | 
CC[C@]1(O)C[C@H]2CN(CCc3c([nH]c4ccccc34)[C@@](C(=O)OC)(c3cc4c(cc3OC)N(C=O)[C@H]3[C@@](O)(C(=O)OC)[C@H](OC(C)=O)[C@]5(CC)C=CCN6CC[C@]43[C@@H]65)C2)C1 [vincristine] | Extensive microtubule depolymerization | also taken up from the apical surface | dramatic increase | 
CCC1=C[C@@H]2CN(C1)Cc1c([nH]c3ccccc13)[C@@](C(=O)OC)(c1cc3c(cc1OC)N(C)[C@H]1[C@@](O)(C(=O)OC)[C@H](OC(C)=O)[C@]4(CC)C=CCN5CC[C@]31[C@@H]54)C2 [vinorelbine] | Extensive microtubule depolymerization | also taken up from the apical surface | dramatic increase | 
tunicamycin |  |  |  | level of co-localization of post-Golgi vesicles containing PSMA and Na,K-ATPase (MDCK-PSMA cells [1]; MDCK-PSMA cells incubated with tunicamycin, 20° C. block then 37° C., 38/88 vesicles): approximately 43%; distribution of surface PSMA between apical and basolateral plasma membrane (PSMA [2]; MDCK-PSMA cells metabolically labeled in the presence of tunicamycin (10 μg/ml, 4 hours), FIG. 4): equivalent levels at both plasma membrane surfaces
